pIC50: −log10 of the molar value. Converted amounts (≈) assume the structure as drawn. Where two headings read alike, the source gives them in different places.
What was measured:
M. tuberculosis CDC1551 [1] = assay: microbe, parasite or virus in culture; format: cell-based; settings: for MIC: Mycobacterium tuberculosis; for Aerobic MIC of CLOF: CLOF with 10 μM 6-azasteroid
M. tuberculosis = assay: Minimum Bactericidal Concentration (MBC); format: cell-based; settings: Mycobacterium tuberculosis
Mtb = assay: Isoniazid MIC shift on Mtb MIC plates (broth microdilution MIC); format: cell-based, M. tuberculosis; settings: for MIC: Mycobacterium tuberculosis
[2] = system: M. tuberculosis constitutively expressing the luxABCDE operon; assay: microbe, parasite or virus in culture; format: cell-based; settings: for MIC: Mycobacterium tuberculosis, read-out: LORA MIC of INH; for activity under low oxygen conditions: in combination with isoniazid
M. tuberculosis CDC1551 [3] = assay: In vitro kill kinetics / time-kill (FIG. 2, FIG. 3); format: cell-based; settings: for rapid killing with mono-treatment: mono-treatment at 10-20 μM, 15 days, FIG. 2
in vitro [4] = format: in vitro ADME; settings: human; for Papp A→B at 2 h, 5 μM: Caco-2, pH 7.4, Papp(A-B)
Protocol: (§1) Caco-2 cells were diluted to 6.86×10^6 cells/mL, dispensed into a 96-well HTS Transwell plate, and cultured for 14 to 18 days. 6-azasteroids at 5 μM was incubated at 37° C. for 2 hours with the Caco-2 cell monolayer in HBSS buffer (10 mM HEPES, pH 7.4) containing 5% BSA. Aliquots from donor sides (apical compartment for Ap→Bl flux, and basolateral compartment for Bl→Ap) and receiver sides (basolateral compartment for Ap→Bl flux, and apical compartment for Bl→Ap) were separated and extracted by acetonitrile or methanol containing appropriate internal standards (IS). The concentration of 6-azasteroid was determined by LC-MS/MS analysis.
(§2) Elution rate: 0.65 mL/min.
(§3) To predict absorption via oral administration, Caco-2 bidirectional permeability assay was performed (Table 8).

Caco-2 cell line = assay: in vitro; format: in vitro ADME; settings: for substrate for P-gp transporter: Caco-2; for intestinal absorption suggested by Papp(A-B): Caco-2, 5 μM
Protocol: as §1, §2, §3

hERG = molecular target: T1, hERG (Homo sapiens, UniProt Q12809); assay: hERG assay (hERG currents in HEK 293 cells); format: cell-based; settings: hERG stably expressed HEK 293 cells
T1 construct: expressed in transfected cells
T1 sequence (Q12809 whole entry): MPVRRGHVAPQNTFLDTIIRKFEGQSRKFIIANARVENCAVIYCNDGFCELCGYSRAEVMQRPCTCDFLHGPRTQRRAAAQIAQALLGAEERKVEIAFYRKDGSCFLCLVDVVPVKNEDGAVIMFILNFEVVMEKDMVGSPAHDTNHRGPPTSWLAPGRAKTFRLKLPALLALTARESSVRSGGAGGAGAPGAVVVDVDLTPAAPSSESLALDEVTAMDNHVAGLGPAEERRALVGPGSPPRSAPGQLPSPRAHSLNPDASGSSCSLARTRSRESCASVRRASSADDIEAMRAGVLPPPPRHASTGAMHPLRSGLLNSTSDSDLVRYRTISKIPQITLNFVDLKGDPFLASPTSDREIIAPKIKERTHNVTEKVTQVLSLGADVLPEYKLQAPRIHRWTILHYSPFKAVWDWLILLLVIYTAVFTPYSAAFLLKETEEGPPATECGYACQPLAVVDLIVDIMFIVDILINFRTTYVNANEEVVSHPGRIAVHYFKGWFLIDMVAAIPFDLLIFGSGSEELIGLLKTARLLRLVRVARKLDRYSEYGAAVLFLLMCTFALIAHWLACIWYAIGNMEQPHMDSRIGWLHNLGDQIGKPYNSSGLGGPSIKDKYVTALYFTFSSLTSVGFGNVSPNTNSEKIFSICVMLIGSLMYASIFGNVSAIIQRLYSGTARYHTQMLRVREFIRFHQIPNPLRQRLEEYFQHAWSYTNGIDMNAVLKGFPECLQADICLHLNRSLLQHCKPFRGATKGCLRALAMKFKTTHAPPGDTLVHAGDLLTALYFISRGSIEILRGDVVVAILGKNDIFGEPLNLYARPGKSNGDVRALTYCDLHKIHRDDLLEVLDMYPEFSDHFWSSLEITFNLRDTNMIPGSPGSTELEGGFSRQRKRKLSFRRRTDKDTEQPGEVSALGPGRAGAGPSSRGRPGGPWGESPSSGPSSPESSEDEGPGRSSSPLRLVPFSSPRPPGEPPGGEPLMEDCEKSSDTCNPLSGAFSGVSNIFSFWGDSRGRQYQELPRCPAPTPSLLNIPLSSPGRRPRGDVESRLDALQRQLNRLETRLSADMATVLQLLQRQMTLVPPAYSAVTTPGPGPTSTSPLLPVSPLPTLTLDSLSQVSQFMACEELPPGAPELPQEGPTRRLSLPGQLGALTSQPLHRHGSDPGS
Protocol: hERG stably expressed HEK 293 cells were seeded at 5×10^5 cells/per 6 cm cell culture dish and induced with doxycycline at 1 μg/mL for 48 hours. Compound at the final concentrations of 30, 10, 3.33, 1.11 and 0.37 μM was applied to the cells accumulatively, post-compound hERG currents were recorded, and IC50 was calculated. Dofetilide was used as a positive control.
To predict the potential cardiotoxic effects of 6-azastroids, human ether-a-go-go related gene (hERG) assay was applied to 100, 107 and 114 (Table 9). Cytotoxicity of 107 was also assessed (Table 10).

[5] = system: luminescent strain of H37Rv in infected J774A.1 cells; assay: microbe, parasite or virus in culture; format: cell-based, M. tuberculosis; settings: for pIC50 / IC90: Mycobacterium tuberculosis, H37RV, J774.A1, single compound, 72 h treatment
[6] = both, human, microsomes, 2 μM, pH 7.4; for Remaining Percentage with NADPH, 0 min: 0 h; for Remaining Percentage with NADPH, 15 min: 0.25 h; for Remaining Percentage with NADPH, 30 min: 0.5 h; for Remaining Percentage with NADPH, 45 min: 0.75 h; for Remaining Percentage with NADPH, 60 min: 1 h
[7] = 10 mg/kg IP injection once per day, seven days per week, for 40 days
in vitro [8] = settings: both, human, microsomes, pH 7.4
[9] = human liver microsomes, value by Frye (Frye, S. V. 2006); cited from earlier work
[10] = Metabolic stability in human liver microsomes; settings: both, pH 7.4
RIF-R2 (ATCC35838) = assay: microbe, parasite or virus in culture; format: cell-based; settings: Mycobacterium tuberculosis, single drug
[11] = system: M. tuberculosis constitutively expressing the luxABCDE operon; settings: isoniazid alone (Cho, S. H. et al. 2007), cited from earlier work
[12] = CDC1551, TB drug alone, read-out: Aerobic MIC
[13] = 504 h, single compound, 2-log kill in 21 days, read-out: MBC
[14] = CDC1551, BDQ with 10 μM 6-azasteroid, read-out: Aerobic MIC of BDQ
[15] = CDC1551, Pa (pretomanid) with 10 μM 6-azasteroid, read-out: Aerobic MIC of Pa

COc1nc2ccc(Br)cc2cc1[C@@H](c1ccccc1)[C@@](O)(CCN(C)C)c1cccc2ccccc12 [BDQ, bedaquiline, reference compound]
MIC (M. tuberculosis CDC1551 [1]; [12]): 0.1 µM (≈ 0.0556 µg/mL)
MBC (M. tuberculosis; [13]): 0.5 µM (≈ 0.278 µg/mL)

CC(C)/N=c1\cc2n(-c3ccc(Cl)cc3)c3ccccc3nc-2cc1Nc1ccc(Cl)cc1 [CLOF, clofazimine]
MIC (M. tuberculosis CDC1551 [1]; [12]): 2 µM (≈ 0.947 µg/mL)

CC(C)(C)c1ccc(C(C)(C)C)c(NC(=O)[C@H]2CCC3C4CNC5=CC(=O)CC[C@]5(C)C4CC[C@@]32C)c1 (some centres unmarked) [Compound 100]
Isoniazid MIC shift (Mtb): +++ (>10-fold +++)
Aerobic MIC of CLOF (M. tuberculosis CDC1551 [1]): NC^b
MIC (M. tuberculosis CDC1551 [1]; [14]): 0.01 µM
MIC (M. tuberculosis CDC1551 [1]; [15]): 0.0002 µM
MIC ([2]; INH with 15 μM 6-azasteroid): 0.75 µM
activity under low oxygen conditions [2]: active
MBC (M. tuberculosis; INH with 12 μM 100, read-out: MBC of INH): 0.6 µM
rapid killing with mono-treatment (M. tuberculosis CDC1551 [3]): no rapid killing in 15 days
Papp A→B at 2 h, 5 μM (in vitro [4]): 14 nm/s
efflux ratio at 2 h, 5 μM (in vitro [4]; Caco-2, pH 7.4, efflux ratio): ~0.5
substrate for P-gp transporter (Caco-2 cell line): not a substrate for P-gp transporter
intestinal absorption suggested by Papp(A-B) (Caco-2 cell line; human, pH 7.4): over 50%
pIC50 (hERG): 6.02
improvement of the potency of INH ([5]; 100 at 20 μM): 10 fold
pIC50 [5]: 5.52
IC90 [5]: > 40 µM
Remaining Percentage with NADPH, 0 min [6]: 100.00%
Remaining Percentage with NADPH, 15 min [6]: 65.83%
Remaining Percentage with NADPH, 30 min [6]: 55.21%
Remaining Percentage with NADPH, 45 min [6]: 48.69%
Remaining Percentage with NADPH, 60 min [6]: 37.91%
toxicity [7]: no toxicity was observed
CLint scaled at 2 μM (in vitro [8]): 2.25 L/h/kg
microsomal CLint at 2 μM (in vitro [8]): 29.9 µL/min/mg
T1/2 previously reported [9]: 164 min
half-life at 2 μM [10]: 46.3 min

CC(C)(C)OC(=O)N1CC2C(CC[C@@]3(C)C2CC[C@@H]3C(=O)Nc2cc(C(F)(F)F)ccc2C(F)(F)F)[C@@]2(C)CCC(=O)C=C12 (some centres unmarked) [Compound 103]
Isoniazid MIC shift (Mtb): +++ (>10-fold +++)

CC1C[C@@]2(C)C(=CC1=O)N(C)CC1C2CC[C@@]2(C)C1CC[C@@H]2C(=O)Nc1cc(C(C)(C)C)ccc1C(C)(C)C (some centres unmarked) [Compound 104]
Isoniazid MIC shift (Mtb): ++ (4-8-fold ++)

COc1nc(OC(F)(F)F)c(NC(=O)C2CCC3C4CNC5=CC(=O)CC[C@]5(C)C4CC[C@]23C)cc1Br (some centres unmarked) [Compound 105]
Isoniazid MIC shift (Mtb): + (2-4-fold +)
MIC (M. tuberculosis CDC1551 [1]; [15]): 0.0002 µM

CC(C)(C)c1cc(NC(=O)[C@H]2CCC3C4CNC5=CC(=O)CC[C@]5(C)C4CC[C@@]32C)cc(C(C)(C)C)c1 (some centres unmarked) [Compound 109]
Isoniazid MIC shift (Mtb): ++ (4-8-fold ++)

CN1CC2C(CC[C@@]3(C)C2CC[C@@H]3C(=O)Nc2cc(C(C)(C)C)ccc2C(C)(C)C)[C@@]2(C)CCC(=O)C=C12 (some centres unmarked) [Compound 113]
Isoniazid MIC shift (Mtb): +++ (>10-fold +++)

CCCN1CC2C(CC[C@@]3(C)C2CC[C@@H]3C(=O)Nc2cc(C(C)(C)C)ccc2C(C)(C)C)[C@@]2(C)CCC(=O)C=C12 (some centres unmarked) [Compound 114]
Isoniazid MIC shift (Mtb): +++ (>10-fold +++)
Aerobic MIC of CLOF (M. tuberculosis CDC1551 [1]): NC^b
MIC (M. tuberculosis CDC1551 [1]; [14]): < 0.0015 µM
MIC ([2]; INH with 55 μM 6-azasteroid): 2.75 µM
activity under low oxygen conditions [2]: active
MBC (M. tuberculosis; [13]): > 40 µM
MBC (M. tuberculosis; BDQ with 10 μM 114, read-out: MBC of BDQ): 0.025 µM
MBC (M. tuberculosis; INH with 13 μM 114, read-out: MBC of INH): 0.7 µM
effect on bactericidal activity of bedaquiline (M. tuberculosis CDC1551 [3]): improves bactericidal activity of bedaquiline
rapid killing with mono-treatment (M. tuberculosis CDC1551 [3]): no rapid killing in 15 days
efflux ratio at 2 h, 5 μM (in vitro [4]; Caco-2, pH 7.4, Efflux Ratio): 0.87
Papp A→B at 2 h, 5 μM (in vitro [4]): 8.5 nm/s
efflux ratio at 2 h, 5 μM (in vitro [4]; Caco-2, pH 7.4, efflux ratio): ~0.5
substrate for P-gp transporter (Caco-2 cell line): not a substrate for P-gp transporter
intestinal absorption suggested by Papp(A-B) (Caco-2 cell line; human, pH 7.4): over 50%
Efflux Ratio (Caco-2 cell line; human, Caco-2, 2 h, 5 μM, pH 7.4): 0.48
pIC50 (hERG): 6.13
Remaining Percentage with NADPH, 0 min [6]: 100.00%
Remaining Percentage with NADPH, 15 min [6]: 24.89%
Remaining Percentage with NADPH, 30 min [6]: 4.76%
Remaining Percentage with NADPH, 45 min [6]: 1.68%
Remaining Percentage with NADPH, 60 min [6]: 0.96%
microsomal CLint at 2 μM (in vitro [8]): 73.2 µL/min/mg
half-life at 2 μM [10]: 18.9 min

CCc1cc(C(N)=S)ccn1 [ETH, ethionamide]
MIC (M. tuberculosis CDC1551 [1]; CDC1551, read-out: Aerobic MIC): 12.5 µM (≈ 2.08 µg/mL)

NNC(=O)c1ccncc1 [INH, isoniazid]
MIC (Mtb; isoniazid without 6-azasteroid, read-out: MIC for isoniazid): 0.4 µM
MIC (Mtb; read-out: MIC for isoniazid alone): 0.2 to 0.4 µM
MIC (M. tuberculosis CDC1551 [1]; [12]): 0.2 to 0.4 µM (≈ 0.0274 to 0.0549 µg/mL)
MBC (M. tuberculosis; [13]): > 230 µM
MIC (RIF-R2 (ATCC35838)): 0.6 µM (≈ 0.0823 µg/mL)
pIC50 [5]: ~5.82
IC90 [5]: > 6 µM
LORA MIC [11]: >128 µM
LORA MIC ([11]; listed as isoniazid): > 128 µM

CC(=O)NC[C@H]1CN(c2ccc(N3CCOCC3)c(F)c2)C(=O)O1 [LIN, linezolid]
MIC (M. tuberculosis CDC1551 [1]; CDC1551, read-out: Aerobic MIC): 0.8 µM (≈ 0.27 µg/mL)

C[C@H]1COc2c(N3CCN(C)CC3)c(F)cc3c(=O)c(C(=O)O)cn1c23 [Levofloxacin]
MIC (RIF-R2 (ATCC35838)): 2.4 µM (≈ 0.867 µg/mL)

COc1c(N2C[C@@H]3CCCN[C@@H]3C2)c(F)cc2c(=O)c(C(=O)O)cn(C3CC3)c12 [MOXI, moxifloxacin]
MIC (M. tuberculosis CDC1551 [1]; [12]): 0.18 µM (≈ 0.0723 µg/mL)

O=[N+]([O-])c1cn2c(n1)OC[C@@H](OCc1ccc(OC(F)(F)F)cc1)C2 [Pa, pretomanid]
MIC (M. tuberculosis CDC1551 [1]; [12]): 0.00625 µM (≈ 0.00225 µg/mL)

CO[C@H]1/C=C/O[C@@]2(C)Oc3c(C)c(O)c4c(O)c(c(/C=N/N5CCN(C)CC5)c(O)c4c3C2=O)NC(=O)/C(C)=C\C=C\[C@H](C)[C@H](O)[C@@H](C)[C@@H](O)[C@@H](C)[C@H](OC(C)=O)[C@@H]1C [Rifampicin]
MIC (RIF-R2 (ATCC35838)): > 50 µM

From patent US11072633B2 (priority 2016, dated 2021)
